From patent publication US6642238B2, “Oxazolidinone thioamides with piperazine amide substituents” (Pharmacia and Upjohn Company, priority 2000, dated 2003)
In brackets after ≈: the same amount, converted by molar mass.

Legend:
[1] = system: Staphylococcus epidermidis (SEPI 30593); experiment: MIC by agar dilution, SEPI 30593; type: cell-based; settings: Minimum Inhibitory Concentration, strain SEPI 30593; for MIC: Staphylococcus epidermidis
Description: (§1) The oxazolidinone antibacterial agents of this invention have useful activity against a variety of organisms. The in vitro activity of compounds of this invention can be assessed by standard testing procedures such as the determination of minimum inhibitory concentration (MIC) by agar dilution as described in “Approved Standard. Methods for Dilution Antimicrobial Susceptibility Tests for Bacteria That Grow Aerobically”, 3rd. ed., published 1993 by the National Committee for Clinical Laboratory Standards, Villanova, Pa., USA. The activity of compounds of this invention against Staphylococcus aureus, Staphylococcus epidermidis, Streptococcus pneumoniae, Streptococcus pyogens, Enterococcus faecalis, Moraxella catarrhalis and H. influenzae is shown in Table 1.

[2] = system: H. influenzae (HINF 30063); experiment: MIC by agar dilution, HINF 30063; type: cell-based; settings: Minimum Inhibitory Concentration, strain HINF 30063; for MIC: Haemophilus influenzae
Description: as §1

[3] = system: Enterococcus faecalis (EFAE 12712); experiment: MIC by agar dilution, EFAE 12712; type: cell-based; settings: Minimum Inhibitory Concentration, strain EFAE 12712; for MIC: Enterococcus faecalis
Description: as §1

[4] = system: Streptococcus pneumoniae (SPNE 9912); experiment: MIC by agar dilution, SPNE 9912; type: cell-based; settings: Minimum Inhibitory Concentration, strain SPNE 9912; for MIC: Streptococcus pneumoniae
Description: as §1

[5] = system: Enterococcus faecalis (EFAE 9217); experiment: MIC by agar dilution, EFAE 9217; type: cell-based; settings: Minimum Inhibitory Concentration, strain EFAE 9217; for MIC: Enterococcus faecalis
Description: as §1

[6] = system: Staphylococcus aureus (SAUR 9213); experiment: MIC by agar dilution, SAUR 9213; type: cell-based; settings: Minimum Inhibitory Concentration, strain SAUR 9213; for MIC: Staphylococcus aureus
Description: as §1

[7] = system: Moraxella catarrhalis (MCAT 30607); experiment: MIC by agar dilution, MCAT 30607; type: cell-based; settings: Minimum Inhibitory Concentration, strain MCAT 30607; for MIC: Moraxella catarrhalis
Description: as §1

[8] = system: Streptococcus pyogens (SPYO 152); experiment: MIC by agar dilution, SPYO 152; type: cell-based; settings: Minimum Inhibitory Concentration, strain SPYO 152; for MIC: Streptococcus
Description: as §1

Compound	MIC [1] [µg/mL]	MIC [2] [µg/mL]	MIC [3] [µg/mL]	MIC [4] [µg/mL]	MIC [5] [µg/mL]	MIC [6] [µg/mL]	MIC [7] [µg/mL]	MIC [8] [µg/mL]	melting point	SEPI 30593 MIC [1] [µg/mL]	HINF 30063 MIC [2] [µg/mL]	EFAE 12712 MIC [3] [µg/mL]	SPNE 9912 MIC [4]	EFAE 9217 MIC [5] [µg/mL]	SAUR 9213 MIC [6] [µg/mL]	MCAT 30607 MIC [7] [µg/mL]	SPYO 152 MIC [8] [µg/mL]
CCC(=S)NC[C@H]1CN(c2ccc(N3CCN(C(=O)CSC)CC3)c(F)c2)C(=O)O1 [EX 2, N-{[(5S)-3-(3-fluoro-4-{4-[2-(methylsulfanyl)acetyl]-1-piperazinyl}phenyl)-2-oxo-1,3-oxazolidin-5-yl]methyl}propanethioamide]	1 (≈ 2.2 µM)	> 64	1 (≈ 2.2 µM)	< 0.5	1 (≈ 2.2 µM)	2 (≈ 4.4 µM)	4 (≈ 8.8 µM)	1 (≈ 2.2 µM)									
CCC(=S)NC[C@H]1CN(c2ccc(N3CCN(C(=O)CS(C)(=O)=O)CC3)c(F)c2)C(=O)O1 [EX 3, N-{ [(5S)-3-(3-fluoro-4-{4-[2-(methylsulfonyl)acetyl]-1-5 piperazinyl}phenyl]-2-oxo-1,3-oxazolidin-5-yl]methyl}propanethioamide]	0.5 (≈ 1.03 µM)	8 (≈ 16.4 µM)	1 (≈ 2.06 µM)	0.25 (≈ 0.514 µM)	0.5 (≈ 1.03 µM)	2 (≈ 4.11 µM)	2 (≈ 4.11 µM)	0.5 (≈ 1.03 µM)									
CCC(=S)NC[C@H]1CN(c2ccc(N3CCN(C(C)=S)CC3)c(F)c2)C(=O)O1 [EX 4, N-({(5S)-3-[4-(4-ethanethiolyl-1-piperazinyl)-3-fluorophenyl]2-oxo-1,3-oxazolidin-5-yl}methyl)propanethioamide]	0.25 (≈ 0.589 µM)	1 (≈ 2.36 µM)	0.5 (≈ 1.18 µM)	0.125 (≈ 0.294 µM)	0.5 (≈ 1.18 µM)	0.5 (≈ 1.18 µM)	1 (≈ 2.36 µM)	0.125 (≈ 0.294 µM)	209 to 210 °C								
CCC(=S)NC[C@H]1CN(c2ccc(N3CCN(C#N)CC3)c(F)c2)C(=O)O1 [EX 5, N-({(5S)-3-[4-(4-cyano-1-piperazinyl)-3-fluorophenyl]-2-oxo-1,3-oxazolidin-5-yl}methyl)propanethioamide]	0.25 (≈ 0.639 µM)	2 (≈ 5.11 µM)	0.25 (≈ 0.639 µM)	0.125 (≈ 0.319 µM)	0.25 (≈ 0.639 µM)	0.25 (≈ 0.639 µM)	1 (≈ 2.55 µM)	0.125 (≈ 0.319 µM)	182 to 184 °C								
CCC(=S)NC[C@H]1CN(c2ccc(N3CCN(C(=O)COC(=O)OCCOC)CC3)c(F)c2)C(=O)O1 [EX 7, N-({(5S)-3-(3-fuoro-4-{4-[2-[(2-methoxyethoxy)carbonyloxy]acetyl]-1-piperazinyl}phenyl)-2-oxo-1,3-oxazolidin-5-yl}methyl) propanethioamide]	1 (≈ 1.9 µM)	4 (≈ 7.6 µM)	2 (≈ 3.8 µM)	0.25 (≈ 0.475 µM)	2 (≈ 3.8 µM)	2 (≈ 3.8 µM)	4 (≈ 7.6 µM)	0.25 (≈ 0.475 µM)	150 to 151 °C								
CCC(=S)NC[C@H]1CN(c2ccc(N3CCN(C(=O)[C@@H](O)COC)CC3)c(F)c2)C(=O)O1 [EX 8, N-[((5S)-3-{3-fluoro-4-[4-((2S)-2-hydroxy-3-methoxypropanoyl)-1-piperazinyl]phenyl}-2-oxo-1,3-oxazolidin-5-yl)methyl]propanethioamide]	1 (≈ 2.13 µM)	16 (≈ 34.1 µM)	2 (≈ 4.27 µM)	0.5 (≈ 1.07 µM)	1 (≈ 2.13 µM)	2 (≈ 4.27 µM)	2 (≈ 4.27 µM)	0.5 (≈ 1.07 µM)	190 to 191 °C (dec.)								
CCC(=S)NC[C@H]1CN(c2ccc(N3CCN(C(=O)[C@H](COC)OC)CC3)c(F)c2)C(=O)O1 [EX 9, N-[((5S)-3-{3-fluoro-4-[4-((2S)-2,3-dimethyoxypropanoyl)-1-piperazinyl]phenyl}-2-oxo-1,3-oxazolidin-5-yl)methyl]propanethioamide]										2	32	4	1 µg/mL	2	4	4	1
CCC(=S)NC[C@H]1CN(c2ccc(N3CCN(C(=O)C(CO)OC)CC3)c(F)c2)C(=O)O1 (stereo partly drawn) [EX 10, N-[((5S)-3-{3-fluoro-4-[4-((2S)-3-hydroxy-2-methyoxypropanoyl)-1-piperazinyl]phenyl}-2-oxo-1,3-oxazolidin-5-yl)methyl]propanethioamide]	2 (≈ 4.27 µM)	16 (≈ 34.1 µM)	2 (≈ 4.27 µM)	1 (≈ 2.13 µM)	1 (≈ 2.13 µM)	4 (≈ 8.54 µM)	4 (≈ 8.54 µM)	1 (≈ 2.13 µM)									
CCC(=S)NC[C@H]1CN(c2ccc(N3CCN(C(=O)C(C)=O)CC3)c(F)c2)C(=O)O1 [EX 12, N-({(5S)-3-[3-fluoro-4-(4-pyruvoyl-1-piperazinyl)phenyl]-2-oxo-1,3-oxazolidin-5-yl}methyl)propanethioamide]	1 (≈ 2.29 µM)	8 (≈ 18.3 µM)	1 (≈ 2.29 µM)	0.5 (≈ 1.15 µM)	1 (≈ 2.29 µM)	2 (≈ 4.58 µM)	2 (≈ 4.58 µM)	0.5 (≈ 1.15 µM)	173 to 175 °C (dec.)								
CCC(=S)NC[C@H]1CN(c2ccc(N3CCN(C(=O)CCO)CC3)c(F)c2)C(=O)O1 [EX 13]	1 (≈ 2.28 µM)	8 (≈ 18.2 µM)	1 (≈ 2.28 µM)	0.5 (≈ 1.14 µM)	1 (≈ 2.28 µM)	2 (≈ 4.56 µM)	2 (≈ 4.56 µM)	0.5 (≈ 1.14 µM)									
CCC(=S)NC[C@H]1CN(c2ccc(N3CCN(C(=O)C4(O)CC4)CC3)c(F)c2)C(=O)O1 [EX 14, N-{[(5S)-3-(3-fluoro-4-{4-[(1-hydroxycyclopropyl)carbonyl]-1-piperazinyl}phenyl)-2-oxo-1,3-oxazolidin-5-yl]methyl}propanethioamide]	1 (≈ 2.22 µM)	32 (≈ 71 µM)	2 (≈ 4.44 µM)	0.5 (≈ 1.11 µM)	1 (≈ 2.22 µM)	4 (≈ 8.88 µM)	2 (≈ 4.44 µM)	1 (≈ 2.22 µM)	185 to 186 °C (dec.)								
CCC(=S)NC[C@H]1CN(c2ccc(N3CCN(C(=O)COc4ccccc4)CC3)c(F)c2)C(=O)O1 [EX 15, N-[((5S)-3-{3-fluoro-4-[4-(2-phenoxyacetyl)-1-piperazinyl]phenyl}-2-oxo-1,3-oxazolidin-5-yl)methyl]propanethioamide]	0.5 (≈ 0.999 µM)	32 (≈ 63.9 µM)	1 (≈ 2 µM)	0.25 (≈ 0.499 µM)	0.5 (≈ 0.999 µM)	2 (≈ 4 µM)	2 (≈ 4 µM)	0.5 (≈ 0.999 µM)	171 to 172 °C								
CCC(=S)NC[C@H]1CN(c2ccc(N3CCN(C(=O)C(C)(CO)CO)CC3)c(F)c2)C(=O)O1 [EX 18, N-{[(5S)-3-(3-fluoro-4-{4-[3-hydroxy-2-(hydroxymethyl)-2-mnethylpropanoyl]-1-piperazinyl}phenyl)-2-oxo-1,3-oxazolidin-5-yl]methyl}propanethioamide]										1	32	2	0.5 µg/mL	2	4	4	1
CCC(=S)NC[C@H]1CN(c2ccc(N3CCN(C(=O)[C@H](O)c4ccccc4)CC3)c(F)c2)C(=O)O1 [EX 21, N-[((5S)-3-{3-fluoro-4-[4-((2R)-2-hydroxy-2-phenylacetyl)-1-piperazinyl]phenyl}-2-oxo-1,3-oxazolidin-5-yl)methyl]propanethioamide]	1 (≈ 2 µM)	64 (≈ 128 µM)	2 (≈ 4 µM)	1 (≈ 2 µM)	2 (≈ 4 µM)	4 (≈ 7.99 µM)	4 (≈ 7.99 µM)	2 (≈ 4 µM)									
CCC(=S)NC[C@H]1CN(c2ccc(N3CCN(C(=O)[C@@H](OC(C)=O)c4ccccc4)CC3)c(F)c2)C(=O)O1 [EX 22, N-[((5S)-3-{3-fluoro-4-[4-((2S)-2-acetoxy-2-phenylacetyl)-1-piperazinyl]phenyl}-2-oxo-1,3-oxazolidin-5-yl)methyl]propanethioamide]	4 (≈ 7.37 µM)	> 64	4 (≈ 7.37 µM)	2 (≈ 3.69 µM)	4 (≈ 7.37 µM)	8 (≈ 14.7 µM)	8 (≈ 14.7 µM)	4 (≈ 7.37 µM)									
N{[(5S)-3-(3-fluoro-4-{4-[2-(methylsulfinyl)acetyl]-1-piperazinyl}phenyl)-2-oxo-1,3-oxazolidin-5-yl]methyl }propanethioamide [EX 1]										1	8	2	.05 µg/mL	1	4	8	2
